How the values were obtained:
[1] = In vitro cytotoxicity assay (MTT cell viability) in HepG2 cells; assay type: cell-based, human; details: human
Outline: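 Using MTT conversion as the viability measure, HepG2 cells were incubated with compounds for 7 days (30 μM to 1.0 nM). Absorbance at 492 nm was normalized to vehicle and fitted to give CC50.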

[2] = test system: HBV replication in HepAD38 cells; experiment: Anti-HBV replication assay in HepAD38 cells (QPCR of extracellular HBV DNA); assay type: cell-based, HBV (genotype D, serotype ayw); details: Hepatitis B virus, 168 h, 7 days incubation, extracellular HBV DNA by QPCR, read-out: Anti-HBV EC50
Outline: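 HepAD38 cells (HepG2 carrying a tet-repressible HBV genotype D genome) were seeded in tetracycline-free medium and treated next day with compound […] for 7 days. Supernatant HBV DNA was measured by QPCR against a standard curve; EC50 came from 4-parameter fits of inhibition versus DMSO control.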

CC(C)(CO)NC(=O)C(=O)c1c(Cl)c(C(=O)Nc2ccc(F)c(F)c2)c2n1CCCC2 [Example 492, 2-chloro-N-(3,4-difluorophenyl)-3-(2-((1-hydroxy-2-methylpropan-2-yl)amino)-2-oxoacetyl)-5,6,7,8-tetrahydroindolizine-1-carboxamide]
CC50 at 7 days [1]: 5 to 30 µM | EC50 [2]: < 0.05 µM

Cc1noc([C@@H](NC(=O)C(=O)c2c(Cl)c(C(=O)Nc3ccc(F)c(C)c3)c3n2CCCC3)C(C)C)n1 [Example 493, (S)-2-chloro-N-(4-fluoro-3-methylphenyl)-3-(2-((2-methyl-1-(3-methyl-1,2,4-oxadiazol-5-yl)propyl)amino)-2-oxoacetyl)-5,6,7,8-tetrahydroindolizine-1-carboxamide]
CC50 at 7 days [1]: 5 to 30 µM | EC50 [2]: < 0.05 µM

Cc1noc([C@H](C)NC(=O)C(=O)c2c(Cl)c(C(=O)Nc3ccc(F)c(C)c3)c3n2CCCC3)n1 [Example 494, (S)-2-chloro-N-(4-fluoro-3-methylphenyl)-3-(2-((1-(3-methyl-1,2,4-oxadiazol-5-yl)ethyl)amino)-2-oxoacetyl)-5,6,7,8-tetrahydroindolizinee-1-carboxamide]
CC50 at 7 days [1]: 5 to 30 µM | EC50 [2]: < 0.05 µM

Cc1noc([C@@H](C)NC(=O)C(=O)c2c(Cl)c(C(=O)Nc3ccc(F)c(C)c3)c3n2CCCC3)n1 [Example 495, (R)-2-chloro-N-(4-fluoro-3-methylphenyl)-3-(2-((1-(3-methyl-1,2,4-oxadiazol-5-yl)ethyl)amino)-2-oxoacetyl)-5,6,7,8-tetrahydroindoliizine-1-carboxamide]
CC50 at 7 days [1]: 5 to 30 µM | EC50 [2]: < 0.05 µM

Cc1cc(NC(=O)c2c(Cl)c(C(=O)C(=O)NC3(CO)CC(F)(F)C3)n3c2CCCC3)ccc1F [Example 496, 2-chloro-3-(2-((3,3-difluoro-1-(hydroxymethyl)cyclobutyl)amino)-2-oxoacetyl)-N-(4-fluoro-3-methylphenyl)-5,6,7,8-tetrahydroindolizine-1-carboxamide]
CC50 at 7 days [1]: 5 to 30 µM | EC50 [2]: < 0.05 µM

Cc1cc(NC(=O)c2c(Cl)c(C(=O)C(=O)NCC(C)(C)O)n3c2CCCC3)ccc1F [Example 497, 2-chloro-N-(4-fluoro-3-methylphenyl)-3-(2-((2-hydroxy-2-methylpropyl)amino)-2-oxoacetyl)-5,6,7,8-tetrahydroindoliine-1-carboxamide]
CC50 at 7 days [1]: 0.5 to 4.99 µM | EC50 [2]: 0.05 to 0.499 µM

Cc1cc(NC(=O)c2c(Cl)c(C(=O)C(=O)NCC(C)(C)CO)n3c2CCCC3)ccc1F [Example 498, 2-chloro-N-(4-fluoro-3-methylphenyl)-3-(2-((3-hydroxy-2,2-dimethylpropyl)amino)-2-oxoacetyl)-5,6,7,8-tetrahydroindolizine-1-carboxamide]
CC50 at 7 days [1]: > 30 µM | EC50 [2]: 0.05 to 0.499 µM

O=C(NC1(CO)CCC1)C(=O)c1c(Cl)c(C(=O)Nc2ccc(F)c(F)c2)c2n1CCCC2 [Example 499, 2-chloro-N-(3,4-difluorophenyl)-3-(2-((1-(hydroxymethyl)cyclobutyl)amino)-2-oxoacetyl)-5,6,7,8-tetrahydroindolizine-1-carboxamide]
CC50 at 7 days [1]: > 30 µM | EC50 [2]: < 0.05 µM

O=C(NC1(CO)CC1)C(=O)c1c(Cl)c(C(=O)Nc2ccc(F)c(Cl)c2)c2n1CCCC2 [Example 501, 2-chloro-N-(3-chloro-4-fluorophenyl)-3-(2-((1-(hydroxymethyl)cyclopropyl)amino)-2-oxoacetyl)-5,6,7,8-tetrahydroindolizine--1 carboxamide]
CC50 at 7 days [1]: 5 to 30 µM | EC50 [2]: 0.05 to 0.499 µM

O=C(NC1(CO)CC1)C(=O)c1c(Cl)c(C(=O)Nc2ccc(F)c(F)c2)c2n1CCCC2 [Example 502, 2-chloro-N-(3,4-difluorophenyl)-3-(2-((1-(hydroxymethyl)cyclopropyl)amino)-2-oxoacetyl)-5,6,7,8-tetrahydroindolizine-1-carboxamide]
CC50 at 7 days [1]: > 30 µM | EC50 [2]: 0.05 to 0.499 µM
